Reference: patent publication US20250100963A1, “SULFONATED AND PHOSPHORYLATED AROMATIC MOLECULES” (Xavier University of Louisiana, priority 2023, published 2025)
Where two headings read alike, the source gives them in different places.

Tests used:
CatG [1] = target: T1, CatG (Homo sapiens, UniProt P08311); experiment: Salt-dependent direct inhibition of human CatG; format: biochemical; details: for HS (Hill slope) / IC50 / ΔY (efficacy): pH 7.4, 37° C.; for Ki: estimated by IC50 to Ki conversion, noncompetitive model, read-out: Calculated Ki
T1 sequence (P08311 21-244): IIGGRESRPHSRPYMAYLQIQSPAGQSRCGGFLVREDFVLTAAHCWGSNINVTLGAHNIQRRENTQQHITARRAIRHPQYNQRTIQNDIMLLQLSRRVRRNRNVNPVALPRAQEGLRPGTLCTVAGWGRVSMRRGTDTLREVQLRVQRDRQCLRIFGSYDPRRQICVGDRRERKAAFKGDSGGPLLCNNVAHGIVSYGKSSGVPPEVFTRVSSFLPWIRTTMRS
Description: The Ki (μM) values were estimated using an IC50 to Ki conversion equation [19].
Although the sulfonated and/or phosphorylated compounds-CatG interaction is likely to be electrostatically driven, non-ionic forces may contribute to a significant extent. A significant non-ionic binding energy component increases the interaction specificity because the majority of non-ionic forces, for example, cation—π interactions, H-bonding and others depend strongly on the orientation and the distance of interacting pair of molecules. In contrast, ionic bonds are non-directional and less dependent on distance, which may increase initial interaction but offer less selectivity of recognition. […] The IC50 values were measured spectrophotometrically under various salt concentrations (100 and 200 mM), as described above. […] Subsequently, the corresponding Ki (nM) values were estimated using a formula previously reported following a classical model of noncompetitive enzyme inhibition and the results are reported below. […] Table 4 and FIG. 4.

CatG [2] = target: T1, CatG; experiment: Direct inhibition of human CatG, chromogenic substrate hydrolysis assay; format: biochemical
Experimental: The method further comprises inhibition of proteases. […] To each well of a 96-well microplate containing 88 μl of 20 mM tris buffer containing 100 mM NaCl, 2.5 mM CaCl2, 0.1% PEG 8000 and 0.05% tween 80 was added 3 μl of CatG (final concentration of 30 nM), and 5 μl of H2O or potential inhibitor (final concentration of 0-100 μM). Following a 5-min incubation, 3 μl of CatG substrate was added (final concentration 750 μM) and the residual CatG activity was obtained from the initial rate of increase of absorbance at 405 nm. The relative residual activity of CatG at each of the inhibitor concentrations was obtained from the ratio of CatG activity in the presence and absence of the inhibitor. Logistic Equation (1) was used to plot the dose-dependence curve to obtain the IC50 (potency) and efficacy of CatG inhibition. Here, Y is the ratio of residual CatG activity in the presence of inhibitor to that in its absence, YO and YM are the minimum and maximum values of fractional residual CatG activity, respectively, IC50 is the concentration of the inhibitor that results in 50% inhibition of CatG activity and HS is the Hill slope.
To each well of a 96-well microplate containing 88 μl of 20 mM tris buffer containing 100 mM NaCl, 2.5 mM CaCl2, 0.1% PEG 8000 and 0.05% tween 80 was added 3 μl of CatG (final concentration of 30 nM), and 5 μl of H2O or potential inhibitor (final concentration of 0-100 μM). Following a 5-min incubation, 3 μl of CatG substrate was added (final concentration 750 μM) and the residual CatG activity was obtained from the initial rate of increase of absorbance at 405 nm. The relative residual activity of CatG at each of the inhibitor concentrations was obtained from the ratio of CatG activity in the presence and absence of the inhibitor. Logistic Equation (1) was used to plot the dose-dependence curve to obtain the IC50 (potency) and efficacy of CatG inhibition. Here, Y is the ratio of residual CatG activity in the presence of inhibitor to that in its absence, YO and YM are the minimum and maximum values of fractional residual CatG activity, respectively, IC50 is the concentration of the inhibitor that results in 50% inhibition of CatG activity and HS is the Hill slope.

SMILES: O=C(Nc1cc(C(=O)Nc2ccc(S(=O)(=O)O)cc2S(=O)(=O)O)cc(C(=O)Nc2ccc(S(=O)(=O)O)cc2S(=O)(=O)O)c1)Nc1cc(C(=O)Nc2ccc(S(=O)(=O)O)cc2S(=O)(=O)O)cc(C(=O)Nc2ccc(S(=O)(=O)O)cc2S(=O)(=O)O)c1 [Formula II, 4,4′,4″,4′-((5,5′-(carbonylbis(azanediyl))bis(isophthaloyl))tetrakis(azanediyl))tetrakis(benzene-1,3-disulfonic acid)]
- Decrease in potency on 2-fold increase in salt concentration (CatG [1]; 100 vs 200 mM salt): ~10 fold
- HS (Hill slope) (CatG [1]; [NaCl] 100 mM): 1.5 ± 0.3
- IC50 (CatG [1]; [NaCl] 100 mM): 90 ± 10 nM
- ΔY (efficacy) (CatG [1]; [NaCl] 100 mM): 82.5 ± 7.4%
- Ki (CatG [1]; [NaCl] 100 mM): ~75 nM
- HS (Hill slope) (CatG [1]; [NaCl] 200 mM): 1.5 ± 0.3
- IC50 (CatG [1]; [NaCl] 200 mM): 920 ± 150 nM
- ΔY (efficacy) (CatG [1]; [NaCl] 200 mM): 75.2 ± 3.4%
- Ki (CatG [1]; [NaCl] 200 mM): ~910 nM
- IC50 (CatG [2]; Table 6, read-out: CATG IC50): 90 nM
- HS (Hill slope) (CatG [2]; Tris buffer pH 7.4, 37° C.): 1.5 ± 0.3
- ΔY (efficacy) (CatG [2]; Tris buffer pH 7.4, 37° C.): 82.5 ± 7.4%
- IC50 (CatG [2]; Tris buffer pH 7.4, 37° C., 100 mM NaCl, read-out: IC50): 90 ± 10 nM
